# Reference: patent publication US20120270929A1, “MODULATION OF TTC39 EXPRESSION TO INCREASE HDL” (ISIS Pharmaceuticals, Inc., priority 2009, published 2012)
# Oligonucleotides are written 5' to 3', each unit as a sugar letter and its base; * is a phosphorothioate linkage, no mark a phosphodiester; rarer units and linkages stand in square brackets, end groups in braces. Plain capitals give the bases only. e = 2'-O-(2-methoxyethyl) (MOE); [5mC] = 5-methylcytosine; d = 2'-deoxy (DNA)
# Experiments:
# [1] = test system: murine TTC39B mRNA; test: In vivo antisense inhibition of murine TTC39B mRNA in liver of C57BL/6 mice; set-up: species or system mouse; settings: 50 mg/kg/week, 6 weeks, relative to PBS control
# Procedure: (§1) Four groups of five mice each were injected twice a week with 25 mg/kg (totaling 50 mg/kg/week) of ISIS 447114, ISIS 447118, ISIS 447143, or ISIS 447144 for 6 weeks. A control group of five mice was injected with phosphate buffered saline (PBS) twice a week for 6 weeks. Plasma samples were obtained before the start of treatment, at week 3 and at week 6. At the end of the treatment period, mice were fasted for 4 hours before being euthanized. Plasma and tissue samples were obtained for further analysis.
# RNA was extracted from liver tissue for real-time PCR analysis of TTC39B using murine primer probe set mTtc39b_LTS00287. […] Results are presented as an average of the percent inhibition of TTC39B, relative to control.
# [2] = test system: PCSK9 mRNA; test: PCSK9 mRNA levels in C57BL/6 mice; format: in vivo, mouse; settings: 50 mg/kg/week, 6 weeks, compared to PBS control
# Procedure: as §1
# (§2) The effect of inhibition of TTC39B in mice on cholesterol homeostasis was studied. PCSK9 mRNA levels were measured using the murine primer probe set mPCSK9 (forward sequence ACCGACTTCAACAGCGTGC, designated herein as SEQ ID NO: 106; reverse sequence GGCTGTCACACTTGCTCGC, designated herein as SEQ ID NO: 107, probe sequence AGGATGGGACACGCTTCCACAGACAX, wherein X is a fluorophore, designated herein as SEQ ID NO: 108). LDLR mRNA levels were measured using the murine primer probe set mLDLR (forward sequence GACCGCAGCGAGTACACCA, designated herein as SEQ ID NO: 109; reverse sequence TCACCTCCGTGTCGAGAGC, designated herein as SEQ ID NO: 110, probe sequence […], designated herein as SEQ ID NO: 111). The results are presented as percentage inhibition compared to the PBS control.
# [3] = test system: ABCA1 mRNA; test: ABCA1 mRNA levels in C57BL/6 mice after TTC39B inhibition; format: in vivo, mouse; settings: 50 mg/kg/week, 6 weeks
# Procedure: as §1
# (§3) The effect of inhibition of TTC39B in mice on these proteins of reverse cholesterol transport was studied. RNA levels of ABCA1 were measured using murine primer probe set RTS1204 (forward sequence […], designated herein as SEQ ID NO: 97; reverse sequence […], designated herein as SEQ ID NO: 98; and probe sequence […], designated herein as SEQ ID NO: 99). RNA levels of apoA1 were measured using murine primer probe set RTS14737 (forward sequence […], designated herein as SEQ ID NO: 100; reverse sequence […], designated herein as SEQ ID NO: 101; and probe sequence […], designated herein as SEQ ID NO: 102). RNA levels of SRB1 were measured using murine primer probe set mSRB-1 (forward sequence […], designated herein as SEQ ID NO: 103; reverse sequence ATGCGACTTGTCAGGCTGG, designated herein as SEQ ID NO: 104; and probe sequence […], designated herein as SEQ ID NO: 105).
# [4] = Body and organ weights in C57BL/6 mice; format: in vivo, mouse
# Procedure: as §1
# Body weights of all the mice were measured weekly till the end of the treatment period. Organ weights were taken at the end of the treatment period when the mice were euthanized.
# [5] = test system: LDLR mRNA; test: LDLR mRNA levels in C57BL/6 mice; format: in vivo, mouse; settings: 50 mg/kg/week, 6 weeks, compared to PBS control
# Procedure: as §1, §2
# [6] = Plasma glucose in C57BL/6 mice (glucose oxidase assay); format: in vivo, mouse
# Procedure: as §1
# Plasma glucose values were determined using a Beckman Glucose Analyzer II (Beckman Coulter) by a glucose oxidase assay. As presented in Table 14, there was no significant change in glucose levels after treatment with ISIS oligonucleotides.
# [7] = Plasma cholesterol and triglycerides in C57BL/6 mice (Olympus AU400e); format: in vivo, mouse
# Procedure: as §1
# To investigate the effect of inhibition of TTC39B on triglycerides and cholesterol levels in the plasma, samples were collected on weeks 0, 3, and 6, and total plasma cholesterol, LDL cholesterol, HDL cholesterol, and triglycerides were analyzed on an Olympus AU400e Analyzer.
# [8] = test system: SRB1 mRNA; test: SRB1 mRNA levels in C57BL/6 mice after TTC39B inhibition; format: in vivo, mouse; settings: 50 mg/kg/week, 6 weeks
# Procedure: as §1, §3
# [9] = Liver function: plasma transaminases (ALT, AST) in C57BL/6 mice; format: in vivo, mouse
# Procedure: as §1
# To evaluate the impact of ISIS oligonucleotides on the hepatic function of the mice described above, plasma concentrations of transaminases were measured using an automated clinical chemistry analyzer (Olympus Clinical Analyzer). Measurements of alanine transaminase (ALT) and aspartate transaminase (AST) are expressed in IU/L. The results are presented in Tables 19 and 20 and indicate that the oligonucleotides were well tolerated.
# [10] = Week 0 (before treatment), 50 mg/kg/week
sequence,measurement,setting,value
TATTTCTATAGCTCATGACA (antisense eT*eA*eT*eT*eT*d[5mC]*dT*dA*dT*dA*dG*d[5mC]*dT*d[5mC]*dA*eT*eG*eA*e[5mC]*eA) [ISIS 447144],% inhibition of TTC39B mRNA in liver,[1],70%
same,Percent inhibition PCSK9 mRNA levels,[2],19%
same,abcA1 mRNA levels (effect of TTC39B inhibition),[3],0
same,Kidney weight after treatment,"[4]; 50 mg/kg/week, 6 weeks",0.34 g
same,Liver weight after treatment,"[4]; 50 mg/kg/week, 6 weeks",1.3 g
same,Spleen weight after treatment,"[4]; 50 mg/kg/week, 6 weeks",0.08 g
same,body weight,"[4]; Week 3, 50 mg/kg/week",26 g
same,body weight,"[4]; Week 6, 50 mg/kg/week",28 g
same,body weight,"[4]; week 1, 50 mg/kg/week",25 g
same,body weight,"[4]; week 2, 50 mg/kg/week",26 g
same,body weight,"[4]; week 4, 50 mg/kg/week",27 g
same,body weight,"[4]; week 5, 50 mg/kg/week",27 g
same,Percent inhibition LDLR mRNA levels,[5],2%
same,glucose levels,[6]; [10],222 mg/dL
same,glucose levels,"[6]; Week 3, 50 mg/kg/week",239 mg/dL
same,glucose levels,"[6]; Week 6, 50 mg/kg/week",235 mg/dL
same,total cholesterol % increase over baseline,"[7]; 50 mg/kg/week, 6 weeks, baseline average of 72 mg/dL",+37%
same,HDL cholesterol levels,[7]; [10],46 mg/dL
same,LDL cholesterol levels,[7]; [10],14 mg/dL
same,total cholesterol levels,[7]; [10],75 mg/dL
same,triglyceride levels,[7]; [10],78 mg/dL
same,HDL cholesterol levels,"[7]; Week 3, 50 mg/kg/week",53 mg/dL
same,HDL cholesterol levels (% change over baseline),"[7]; Week 3, 50 mg/kg/week",+14%
same,LDL cholesterol levels,"[7]; Week 3, 50 mg/kg/week",14 mg/dL
same,total cholesterol levels,"[7]; Week 3, 50 mg/kg/week",81 mg/dL
same,triglyceride levels,"[7]; Week 3, 50 mg/kg/week",70 mg/dL
same,HDL cholesterol levels,"[7]; Week 6, 50 mg/kg/week",90 mg/dL
same,HDL cholesterol levels (% change over baseline),"[7]; Week 6, 50 mg/kg/week",+88%
same,LDL cholesterol levels,"[7]; Week 6, 50 mg/kg/week",18 mg/dL
same,total cholesterol levels,"[7]; Week 6, 50 mg/kg/week",107 mg/dL
same,triglyceride levels,"[7]; Week 6, 50 mg/kg/week",91 mg/dL
same,srb1 mRNA levels (effect of TTC39B inhibition),[8],0
same,ALT levels,[9]; [10],28 IU/L
same,AST levels,[9]; [10],67 IU/L
same,ALT levels,"[9]; Week 3, 50 mg/kg/week",21 IU/L
same,AST levels,"[9]; Week 3, 50 mg/kg/week",31 IU/L
same,ALT levels,"[9]; Week 6, 50 mg/kg/week",69 IU/L
same,AST levels,"[9]; Week 6, 50 mg/kg/week",113 IU/L
